From publication PMC12869243, “Urate-lowering effect of delphinidin-3-glucoside in red kidney beans via binding to the FAD site of the XO enzyme” (Journal of Advanced Research, 2025)

Key:
xanthine oxidase (XO) [1] = target: T1, xanthine oxidase (XO) (Bos taurus, UniProt P80457); experiment: SPR (Biacore T200, CM5 chip, immobilised XO, steady-state analysis); also lowers uric acid production by purified XO (UHPLC-MS); type: binding
T1 construct: gene XDH

xanthine oxidase (XO) [2] = target: T1, xanthine oxidase (XO)

T1 sequence (P80457 2-1332): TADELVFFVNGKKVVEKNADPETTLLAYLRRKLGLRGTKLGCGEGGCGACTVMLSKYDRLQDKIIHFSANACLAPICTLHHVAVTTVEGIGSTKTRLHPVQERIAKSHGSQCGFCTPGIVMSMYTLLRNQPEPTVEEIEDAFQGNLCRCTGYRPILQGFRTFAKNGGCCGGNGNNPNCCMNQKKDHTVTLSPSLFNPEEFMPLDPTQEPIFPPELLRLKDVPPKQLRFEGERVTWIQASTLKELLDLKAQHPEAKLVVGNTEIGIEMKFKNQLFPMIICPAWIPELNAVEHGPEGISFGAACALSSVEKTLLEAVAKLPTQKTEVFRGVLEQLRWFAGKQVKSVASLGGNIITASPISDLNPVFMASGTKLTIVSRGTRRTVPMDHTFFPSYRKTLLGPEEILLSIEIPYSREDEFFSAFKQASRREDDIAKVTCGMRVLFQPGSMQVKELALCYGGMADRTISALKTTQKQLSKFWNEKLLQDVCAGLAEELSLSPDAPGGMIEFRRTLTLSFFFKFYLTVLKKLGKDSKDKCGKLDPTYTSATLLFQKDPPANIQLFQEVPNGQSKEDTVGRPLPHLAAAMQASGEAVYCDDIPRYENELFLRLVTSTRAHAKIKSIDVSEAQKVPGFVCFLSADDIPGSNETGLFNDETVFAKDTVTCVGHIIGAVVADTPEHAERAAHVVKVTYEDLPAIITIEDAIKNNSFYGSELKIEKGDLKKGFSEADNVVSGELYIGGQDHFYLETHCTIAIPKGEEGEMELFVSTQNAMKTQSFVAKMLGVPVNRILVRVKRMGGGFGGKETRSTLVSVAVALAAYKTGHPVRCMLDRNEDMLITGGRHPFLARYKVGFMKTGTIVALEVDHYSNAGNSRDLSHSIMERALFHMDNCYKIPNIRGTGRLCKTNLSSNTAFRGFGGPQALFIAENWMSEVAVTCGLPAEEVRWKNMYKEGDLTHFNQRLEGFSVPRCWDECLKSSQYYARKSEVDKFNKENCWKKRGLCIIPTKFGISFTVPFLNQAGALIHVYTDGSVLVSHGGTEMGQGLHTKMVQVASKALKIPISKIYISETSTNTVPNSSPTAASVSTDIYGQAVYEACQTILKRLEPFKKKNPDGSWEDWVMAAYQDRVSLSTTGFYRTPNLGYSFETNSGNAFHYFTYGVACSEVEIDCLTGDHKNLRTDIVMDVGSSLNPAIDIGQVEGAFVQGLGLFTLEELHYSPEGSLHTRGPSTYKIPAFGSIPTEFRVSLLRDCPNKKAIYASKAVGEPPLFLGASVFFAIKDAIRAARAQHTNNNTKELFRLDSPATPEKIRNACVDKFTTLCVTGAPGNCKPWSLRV

Compound | Kd (xanthine oxidase (XO) [1]) [nM] | XO reaction-UHPLC/MS assay of uric acid production from xanthine, AP at 100 μM a (xanthine oxidase (XO) [2])
OC[C@H]1O[C@@H](Oc2cc3c(O)cc(O)cc3[o+]c2-c2cc(O)c(O)c(O)c2)[C@H](O)[C@@H](O)[C@@H]1O [Dp-3G, delphinidin-3-glucoside] | 250 | 
Oc1ncnc2[nH]ncc12 [AP, allopurinol] |  | We observed a significant reduction in uric acid levels in the AP treated group, a potent purine-like XOI
